# According to patent US20090131468A1, “Bis-(Sulfonylamino) Derivatives in Therapy 065” (AstraZeneca AB, priority 2007, published 2009):
# Target: T1, human mPGES-1 (Homo sapiens, UniProt O14684)
# T1 sequence (O14684 1-152): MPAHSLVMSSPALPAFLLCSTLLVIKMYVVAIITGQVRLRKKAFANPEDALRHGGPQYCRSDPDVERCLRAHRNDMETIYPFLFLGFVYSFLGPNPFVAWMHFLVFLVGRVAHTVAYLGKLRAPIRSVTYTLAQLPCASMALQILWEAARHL
# Assay: Microsomal prostaglandin E synthase biochemical assay
# Conditions: microsome preparation containing human mPGES-1; PGH2 10.8 μM, GSH 2.5 mM, pH 6.8; PGE2 quantified by HTRF; average of at least n=2
# In short: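 Human mPGES-1 microsomes (from IL-1β-stimulated A549 cells or Sf9 cells expressing human mPGES-1) were pre-incubated 15 min with compound in potassium phosphate buffer pH 6.8 with GSH. PGH2 was then added, and the reaction was stopped after one minute with acidic ferric chloride/citrate. PGE2 was read by HTRF, and IC50 was taken from control-normalised activity.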
row,SMILES,IC50 [nM]
1,"COC(C)(C)C#Cc1ccc(C(=O)NS(=O)(=O)c2ccccc2S(N)(=O)=O)cc1O [Example 115, 3-Hydroxy-4-(3-methoxy-3-methylbut-1-ynyl)-N-(2-sulfamoylphenylsulfonyl)-benzamide]",4300
2,"CC(C)(C)C#Cc1ccc(C(=O)NS(=O)(=O)c2ccccc2S(N)(=O)=O)cn1 [Example 116, 6-(3,3-Dimethylbut-1-ynyl)-N-(2-sulfamoylphenylsulfonyl)nicotinamide]",350
3,"COCCOCCOc1cc(C(=O)NS(=O)(=O)c2ccccc2S(N)(=O)=O)ccc1C#CC(C)(C)C [Example 118, 4-(3,3-Dimethylbut-1-ynyl)-3-(2-(2-methoxyethoxy)ethoxy)-N-(2-sulfamoylphenyl-sulfonyl)benzamide]",620
4,"COCCOCCOc1cc(C(=O)NS(=O)(=O)c2ccccc2S(N)(=O)=O)ccc1-c1cc2ccccc2o1 [Example 119, 4-(Benzofuran-2-yl)-3-(2-(2-methoxyethoxy)ethoxy)-N-(2-sulfamoylphenylsulfonyl)-benzamide]",17
5,"CC(OC(C)(C)C)c1cc2cc(C(=O)NS(=O)(=O)c3ccccc3S(N)(=O)=O)ccc2o1 (stereo not shown) [Example 121, 2-(1-tert-Butoxyethyl)-N-(2-sulfamoylphenylsulfonyl)benzofuran-5-carboxamide]",2100
6,"COC(C)(C)c1cc2cc(C(=O)NS(=O)(=O)c3ccccc3S(N)(=O)=O)ccc2o1 [Example 125, 2-(2-Methoxypropan-2-yl)-N-(2-sulfamoylphenylsulfonyl)benzofuran-5-carboxamide]",12000
7,"CC(C)Oc1cc(C(=O)NS(=O)(=O)c2ccccc2S(N)(=O)=O)ccc1C#CC(C)(C)C [Example 128, 4-(3,3-Dimethylbut-1-ynyl)-3-isopropoxy-N-(2-sulfamoylphenylsulfonyl)benzamide]",45
8,"CC(C)Oc1cc(C(=O)NS(=O)(=O)c2ccccc2S(N)(=O)=O)ccc1C#CC(C)(C)O [Example 129, 4-(3-Hydroxy-3-methylbut-1-ynyl)-3-isopropoxy-N-(2-sulfamoylphenylsulfonyl)-benzamide]",7000
9,"CC(C)Oc1cc(C(=O)NS(=O)(=O)c2ccccc2S(N)(=O)=O)ccc1C#CC1CCCC1 [Example 130, 4-(Cyclopentylethynyl)-3-isopropoxy-N-(2-sulfamoylphenylsulfonyl)benzamide]",20

# Next, values leading:
row,IC50 [nM],SMILES
1,180,"NS(=O)(=O)c1ccccc1S(=O)(=O)NC(=O)c1ccc(-c2cc3ccccc3o2)nc1 [Example 117, 6-(Benzofuran-2-yl)-N-(2-sulfamoylphenylsulfonyl)nicotinamide]"
2,28,"COc1ccccc1-c1cc2cc(C(=O)NS(=O)(=O)c3ccccc3S(N)(=O)=O)ccc2o1 [Example 120, 2-(2-Methoxyphenyl)-N-(2-sulfamoylphenylsulfonyl)benzofuran-5-carboxamide]"
3,650,"NS(=O)(=O)c1ccccc1S(=O)(=O)NC(=O)c1ccc2oc(-c3ccccn3)cc2c1 [Example 122, 2-(Pyridin-2-yl)-N-(2-sulfamoylphenylsulfonyl)benzofuran-5-carboxamide]"
4,2000,"NS(=O)(=O)c1ccccc1S(=O)(=O)NC(=O)c1ccc2oc(-c3cccnc3)cc2c1 [Example 123, 2-(Pyridin-3-yl)-N-(2-sulfamoylphenylsulfonyl)benzofuran-5-carboxamide]"
5,21000,"CC(C)(O)c1cc2cc(C(=O)NS(=O)(=O)c3ccccc3S(N)(=O)=O)ccc2o1 [Example 124, 2-(2-Hydroxypropan-2-yl)-N-(2-sulfamoylphenylsulfonyl)benzofuran-5-carboxamide]"
6,260,"NS(=O)(=O)c1ccccc1S(=O)(=O)NC(=O)c1ccc2oc(C3CC3)cc2c1 [Example 126, 2-Cyclopropyl-N-(2-sulfamoylphenylsulfonyl)benzofuran-5-carboxamide]"
7,9.5,"CC(C)Oc1cc(C(=O)NS(=O)(=O)c2ccccc2S(N)(=O)=O)ccc1-c1cc2ccccc2o1 [Example 127, 4-(Benzofuran-2-yl)-3-isopropoxy-N-(2-sulfamoylphenylsulfonyl)benzamide]"
